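Grown in 96-well plates, cells were treated for 48 hours with each compound at five concentrations. Insufficient inhibition: endpoint recorded as highest concentration tested. Abbreviation: GI50, concentration required for 50% inhibition of growth. Definition used: TGI = concentration required for complete inhibition of growth.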
Key:
Assay in all cases: growth of human tumour cells (NCI), 48 h
CAKI-1 renal = system: CAKI-1 renal
A498 renal = system: A498 renal
SW-620 colon = system: SW-620 colon
OVCAR-3 ovarian = system: OVCAR-3 ovarian
SR leukemia = system: SR leukemia
SF-295 CNS = system: SF-295 CNS
MOLT-4 leukemia = system: MOLT-4 leukemia
MDA-MB-435 = system: MDA-MB-435

Row | SMILES | TGI (CAKI-1 renal) | TGI (A498 renal) | TGI (SW-620 colon) | TGI (OVCAR-3 ovarian) | TGI (SR leukemia) | TGI (SF-295 CNS) | TGI (MOLT-4 leukemia) | GI50 (A498 renal) | GI50 (MDA-MB-435) | TGI (MDA-MB-435) | GI50 (SW-620 colon) | GI50 (OVCAR-3 ovarian) | GI50 (SF-295 CNS) | GI50 (MOLT-4 leukemia)
1 | O=C(CCc1ccccc1)On1nnc2ccccc2c1=O | > 100 µM | > 100 µM | > 100 µM | > 100 µM | > 100 µM | > 100 µM | > 100 µM | – | – | – | – | – | – | –
2 | CN(/N=C/c1ccnc2ccccc12)c1ccc([N+](=O)[O-])cc1[N+](=O)[O-] | > 100 µM | > 100 µM | > 100 µM | > 100 µM | – | > 100 µM | > 100 µM | – | – | – | – | – | – | –
3 | Cc1cccc2c1Oc1cc(Cl)ccc1C2NC(=O)CN(C)C (configuration not stated) | – | – | > 100 µM | – | > 100 µM | – | > 100 µM | – | – | – | – | – | – | –
4 | O=C(O)c1ccc(N=Nc2cc(S(=O)(=O)O)c3cccnc3c2O)cc1 | > 100 µM | > 100 µM | > 100 µM | > 100 µM | > 100 µM | > 100 µM | > 100 µM | – | – | – | – | – | – | –
5 | CC1=Nc2c([nH]c(=S)[nH]c2=O)NC(c2ccc(Cl)c(Cl)c2)C1 (configuration not stated) | > 100 µM | 33.3 µM | > 57.7 µM | 38.3 µM | > 100 µM | 46.3 µM | > 100 µM | – | – | – | – | – | – | –
6 | C[C@H]1COC2(c3ccccc3)CCC(=O)N12 (some centres not stated) | > 100 µM | > 100 µM | > 100 µM | > 100 µM | > 100 µM | > 100 µM | – | – | – | – | – | – | – | –
7 | CC(=O)OCC(OC(C)=O)C(OC(C)=O)C(OC(C)=O)C(=O)CNn1c(-c2ccccc2)nc2ccc(Br)cc2c1=O (configuration not stated) | > 100 µM | > 100 µM | > 100 µM | > 100 µM | > 100 µM | > 100 µM | > 100 µM | – | – | – | – | – | – | –
8 | OCC(O)COc1c(Cl)ccc(Cl)c1Cl (configuration not stated) | > 100 µM | > 100 µM | > 100 µM | > 100 µM | > 100 µM | > 100 µM | > 100 µM | – | – | – | – | – | – | –
9 | CN(C)c1nc(N(C)C)n2nc(-c3ccccc3[N+](=O)[O-])nc2n1 | > 100 µM | > 100 µM | 24.2 µM | > 100 µM | > 100 µM | > 100 µM | > 100 µM | – | – | – | – | – | – | –
10 | NS(=O)(=O)c1ccc(NC(=O)CC(=O)Nc2ccc(S(N)(=O)=O)cc2)cc1 | > 100 µM | > 100 µM | > 100 µM | > 100 µM | > 100 µM | > 100 µM | > 100 µM | – | – | – | – | – | – | –
11 | O=C1OC(c2ccccc2)=N/C1=C\c1c(O)cc(O)cc1O | > 100 µM | > 100 µM | > 100 µM | > 100 µM | – | – | > 100 µM | – | – | – | – | – | – | –
12 | CCOC(=O)C1=C(NC(C)(C)C)OCC1=O | > 100 µM | – | > 100 µM | > 100 µM | > 100 µM | > 100 µM | > 100 µM | – | – | – | – | – | – | –
13 | Cc1[nH]c(=O)nc(CC(O)(c2ccccc2)c2ccccc2)c1-c1ccccc1 | > 100 µM | > 100 µM | > 100 µM | > 100 µM | – | > 100 µM | > 100 µM | – | – | – | – | – | – | –
14 | CC(C)CC(CNC(Cc1ccc(Cl)cc1)C(N)=O)NC(=O)C(Cc1cnc[nH]1)NC(=O)CNC(=O)C(NC(=O)C(C)NC(=O)C(Cc1c[nH]c2ccccc12)NC(=O)C(CCC(=O)O)NC(=O)C(N)Cc1ccccc1)C(C)C (configuration not stated) | > 133 µM | > 133 µM | > 133 µM | > 133 µM | > 133 µM | > 133 µM | > 133 µM | – | – | – | – | – | – | –
15 | N#CCC(=O)N/N=C1/C(=O)NC(=O)C(=O)C1c1nc2ccccc2s1 (configuration not stated) | > 100 µM | > 100 µM | > 100 µM | > 100 µM | > 100 µM | > 100 µM | > 100 µM | – | – | – | – | – | – | –
16 | CCOC(OCC)c1ccc(/C=C/c2cc(OC)c(OC)c(OC)c2)cc1 | 74.3 µM | 45.4 µM | 56.3 µM | 38 µM | – | 40.4 µM | – | – | – | – | – | – | – | –
17 | COC(=O)C1=C(c2cc(OC)c(OC)c(OC)c2)OC(c2cc(OC)c(OC)c(OC)c2)C1COC(C)=O (configuration not stated) | > 100 µM | > 100 µM | > 100 µM | > 100 µM | 52.2 µM | > 100 µM | 58.7 µM | – | – | – | – | – | – | –
18 | COc1ccc(/C=C/c2nc(=S)[nH][nH]2)cc1 | > 100 µM | > 100 µM | > 100 µM | > 100 µM | > 100 µM | > 100 µM | > 100 µM | – | – | – | – | – | – | –
19 | O=C(CCC(=O)N/N=C/c1ccccc1O)N/N=C/c1ccccc1O | > 100 µM | – | > 100 µM | > 100 µM | > 100 µM | > 100 µM | > 100 µM | – | – | – | – | – | – | –
20 | CCc1ccc(/C(C)=N/NC(N)=S)cc1 | > 100 µM | – | – | > 100 µM | > 100 µM | > 100 µM | > 100 µM | – | – | – | – | – | – | –
21 | COC1(OC)CC2C(=O)N(Cc3ccccc3)C1CC2S(=O)(=O)c1ccccc1 (configuration not stated) | – | – | > 100 µM | > 100 µM | – | > 100 µM | > 100 µM | – | – | – | – | – | – | –
22 | COc1ccc(/C(Cl)=C(\C=O)c2ccc(Br)cc2)cc1OC | > 100 µM | > 100 µM | > 100 µM | > 100 µM | – | 67.9 µM | > 100 µM | – | – | – | – | – | – | –
23 | Cc1ccc(S(=O)(=O)NC(CCC(=O)Nc2ccccc2)C(=O)Nc2ccccc2)cc1 (configuration not stated) | – | 0.897 µM | 2.93 µM | 1.35 µM | – | 1.69 µM | > 100 µM | 0.142 µM | 0.437 µM | 2.06 µM | 0.719 µM | 0.419 µM | 0.362 µM | 0.375 µM

— PubChem BioAssay (NCI)
